The text below walks through data of patent US12098145B2 (Libra Therapeutics, Inc., priority 2022, dated 2024).

Like-named read-outs stand apart in the source and are kept apart here.

The subject of one assay is TFEB. The assay can be described thus: TFEB translocation assay (TFEB reporter in U2OS cells, imaging). As to conditions: Homo sapiens; U2OS cell line with TFEB reporter, 2 hours incubation, nucleus to cytoplasm ratio, normalized to Torin-1; read-out: TFEB Translocation pEC50 (converted). It counts as cell-based. An outline of the steps:
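U2OS cells stably expressing mRFP-fused TFEB reporter, switched to Opti-MEM then treated 2 h at 37 °C with compounds (0.5% DMSO, 0.015% Tween 80). Hoechst-stained, PFA-fixed cells imaged at 20×; nucleus/cytoplasm intensity ratio per well normalized to Torin-1 (100%) and DMSO (0%).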

The target of the next assay is T1, TRPML1 (Homo sapiens, UniProt Q9GZU1).
T1 construct: expressed in transfected cells; host or cells: HEK T-REx cells stably expressing GCaMP6f and TRPML1
T1 sequence (Q9GZU1 whole entry): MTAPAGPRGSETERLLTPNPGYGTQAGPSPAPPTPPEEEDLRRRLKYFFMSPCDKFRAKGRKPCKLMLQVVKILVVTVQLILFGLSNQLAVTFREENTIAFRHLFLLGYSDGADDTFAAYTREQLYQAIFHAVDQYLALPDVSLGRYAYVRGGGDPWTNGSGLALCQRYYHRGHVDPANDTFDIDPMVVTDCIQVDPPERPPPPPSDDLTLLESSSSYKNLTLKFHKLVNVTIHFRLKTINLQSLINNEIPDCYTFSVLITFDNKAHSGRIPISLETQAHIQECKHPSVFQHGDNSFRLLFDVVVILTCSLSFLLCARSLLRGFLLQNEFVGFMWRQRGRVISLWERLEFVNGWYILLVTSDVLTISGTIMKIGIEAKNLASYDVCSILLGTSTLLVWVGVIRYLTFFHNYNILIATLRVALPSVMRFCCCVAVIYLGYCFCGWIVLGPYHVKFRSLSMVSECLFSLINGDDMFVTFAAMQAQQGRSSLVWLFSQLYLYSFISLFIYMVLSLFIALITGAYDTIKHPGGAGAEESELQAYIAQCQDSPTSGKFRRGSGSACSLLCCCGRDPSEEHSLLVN
Kind of assay: Cellular TRPML1 assay (FLIPR, GCaMP6f calcium read-out). The assay is classed as cell-based. In short, it runs like this:
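HEK T-REx cells stably expressing TRPML1 and GCaMP6f, seeded 24 h before in Optimem + 0.5% FBS. After ~10 min pre-incubation at room temperature, compounds in Ca2+-free Tyrode's buffer were injected on FLIPR Tetra (final DMSO 0.5%). Calcium fluorescence kinetics followed for 300 s.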

The mark [1] stands for this setting: HEKT-REx/GCaMP6f/TRPML1 cells, FLIPR TETRA, kinetic response over 300 seconds, read-out: TRPML1 FLIPR pEC50 (converted).

As to `COC1(C)CN(c2nc(C(=O)Nc3cc(C)c(NC4C5CCCC4CC5)c(F)c3)c(CC(F)(F)F)o2)C1` (stereo not drawn) [Example 195, N-(4-(bicyclo[3.2.1]octan-8-ylamino)-3-fluoro-5-methylphenyl)-2-(3-methoxy-3-methylazetidin-1-yl)-5-(2,2,2-trifluoroethyl)oxazole-4-carboxamide], the EC50 with TFEB and at TRPML1 (setting [1]) was 10 to 1000 nM throughout.
In the case of `COC1(C)CN(c2nc(C(=O)Nc3cc(F)c(N4C5CCCC4CC5)c(C#N)c3)c(CC(F)(F)F)o2)C1` [Example 196, N-(4-(8-azabicyclo[3.2.1]octan-8-yl)-3-cyano-5-fluorophenyl)-2-(3-methoxy-3-methylazetidin-1-yl)-5-(2,2,2-trifluoroethyl)oxazole-4-carboxamide], the EC50 with TFEB and at TRPML1 was 10 to 1000 nM in each case.
For `COC1(C)CN(c2nc(C(=O)Nc3ccc(N4C5CCCC4CC5)c(C#N)c3)c(CC(F)(F)F)o2)C1` [Example 197, N-(4-(8-azabicyclo[3.2.1]octan-8-yl)-3-cyanophenyl)-2-(3-methoxy-3-methylazetidin-1-yl)-5-(2,2,2-trifluoroethyl)oxazole-4-carboxamide], the EC50 with TFEB and on TRPML1 was 10 to 1000 nM throughout.
Regarding `CC1(C)CN(c2nc(C(=O)Nc3cc(F)c(N4C5CCCC4CC5)c(F)c3)c(CC(F)(F)F)o2)C1` [Example 200, N-(4-(8-azabicyclo[3.2.1]octan-8-yl)-3,5-difluorophenyl)-2-(3,3-dimethylazetidin-1-yl)-5-(2,2,2-trifluoroethyl)oxazole-4-carboxamide], the EC50 with TFEB and on TRPML1 was 10 to 1000 nM in each case.
With `O=C(Nc1cc(F)c(N2C3CCCC2CC3)c(F)c1)c1nc(N2CC3COCC3C2)oc1CC(F)(F)F` (stereo not drawn) [Example 201, N-(4-(8-azabicyclo[3.2.1]octan-8-yl)-3,5-difluorophenyl)-2-(tetrahydro-1H-furo[3,4-c]pyrrol-5(3H)-yl)-5-(2,2,2-trifluoroethyl)oxazole-4-carboxamide], the EC50 with TFEB and on TRPML1 was 10 to 1000 nM in each case.
Regarding `O=C(Nc1ccc(N2CC3CC(C3)C2)c(F)c1)c1nc(N2CCC3(COC3)C2)oc1CC(F)(F)F` [Example 202, N-(4-(3-azabicyclo[3.1.1]heptan-3-yl)-3-fluorophenyl)-2-(2-oxa-6-azaspiro[3.4]octan-6-yl)-5-(2,2,2-trifluoroethyl)oxazole-4-carboxamide], the EC50 with TFEB and at TRPML1 was 10 to 1000 nM throughout.
`CCC1(OC)CN(c2nc(C(=O)Nc3cc(F)c(N4CC5CC(C5)C4)c(F)c3)c(CC(F)(F)F)o2)C1` [Example 203, N-(4-(3-azabicyclo[3.1.1]heptan-3-yl)-3,5-difluorophenyl)-2-(3-ethyl-3-methoxyazetidin-1-yl)-5-(2,2,2-trifluoroethyl)oxazole-4-carboxamide]: the EC50 in the assay on TFEB and on TRPML1 was 10 to 1000 nM in each case.
Turning to `CCC1(OC)CN(c2nc(C(=O)Nc3cc(F)c(N4C5CCCC4CC5)c(F)c3)c(CC(F)(F)F)o2)C1` [Example 206, N-(4-(8-azabicyclo[3.2.1]octan-8-yl)-3,5-difluorophenyl)-2-(3-ethyl-3-methoxyazetidin-1-yl)-5-(2,2,2-trifluoroethyl)oxazole-4-carboxamide], the EC50 in the assay on TFEB and on TRPML1 was 10 to 1000 nM in each case.
In the case of `COC1(C)CN(c2nc(C(=O)Nc3cc(F)c(N4C5CCCC4CC5)c(F)c3)c(CC(F)(F)F)o2)C1` [Example 207, N-(4-(8-azabicyclo[3.2.1]octan-8-yl)-3,5-difluorophenyl)-2-(3-methoxy-3-methylazetidin-1-yl)-5-(2,2,2-trifluoroethyl)oxazole-4-carboxamide], the EC50 in the assay with TFEB and on TRPML1 was 10 to 1000 nM throughout.
For the compound `CCc1oc(N2CC(CC)(OC)C2)nc1C(=O)Nc1cc(F)c(O[C@@H]2C[C@@H]3C[C@@H]3C2)c(Cl)c1` [Example 219, N-(4-(cis-bicyclo[3.1.0]hexan-3-yloxy)-3-chloro-5-fluorophenyl)-5-ethyl-2-(3-ethyl-3-methoxyazetidin-1-yl)oxazole-4-carboxamide], the EC50 in the assay on TFEB and at TRPML1 (setting [1]) was 10 to 1000 nM each time.
As to `CCc1oc(N2CC(CC)(CC)C2)nc1C(=O)Nc1cc(F)c(O[C@@H]2C[C@@H]3C[C@@H]3C2)c(Cl)c1` [Example 221, N-(4-(cis-bicyclo[3.1.0]hexan-3-yloxy)-3-chloro-5-fluorophenyl)-2-(3,3-diethylazetidin-1-yl)-5-ethyloxazole-4-carboxamide], the EC50 in the assay on TFEB and on TRPML1 (setting [1]) was 10 to 1000 nM throughout.
Take `CCc1oc(N2CC(C)(OC)C2)nc1C(=O)Nc1cc(F)c(O[C@@H]2C[C@@H]3C[C@@H]3C2)c(Cl)c1` [Example 223, N-(4-(cis-bicyclo[3.1.0]hexan-3-yloxy)-3-chloro-5-fluorophenyl)-5-ethyl-2-(3-methoxy-3-methylazetidin-1-yl)oxazole-4-carboxamide]: the EC50 in the assay on TFEB and at TRPML1 (setting [1]) was 10 to 1000 nM in each case.
Consider `CCc1oc(N2CC(C)(CO)C2)nc1C(=O)Nc1cc(C)c(OC2CC3CC(C3)C2)c(F)c1` (stereo not drawn) [Example 224, N-(4-(bicyclo[3.1.1]heptan-3-yloxy)-3-fluoro-5-methylphenyl)-5-ethyl-2-(3-(hydroxymethyl)-3-methylazetidin-1-yl)oxazole-4-carboxamide], for which the EC50 in the assay with TFEB and at TRPML1 (setting [1]) was 10 to 1000 nM in each case.
Consider `CCc1oc(N2CCCC2)nc1C(=O)Nc1cc(C)c(OC2CC3CC(C3)C2)c(F)c1` (stereo not drawn) [Example 225, N-(4-(bicyclo[3.1.1]heptan-3-yloxy)-3-fluoro-5-methylphenyl)-5-ethyl-2-(pyrrolidin-1-yl)oxazole-4-carboxamide], for which the EC50 with TFEB and at TRPML1 (setting [1]) was 10 to 1000 nM each time.
Regarding `CCc1oc(N2CC(CC)(OC)C2)nc1C(=O)Nc1cc(C)c(O[C@@H]2C[C@@H]3C[C@@H]3C2)c(F)c1` [Example 227, N-(4-(cis-bicyclo[3.1.0]hexan-3-yloxy)-3-fluoro-5-methylphenyl)-5-ethyl-2-(3-ethyl-3-methoxyazetidin-1-yl)oxazole-4-carboxamide], the EC50 with TFEB and at TRPML1 (setting [1]) was 10 to 1000 nM in each case.
For `CCc1oc(N2CC(CC)(OC)C2)nc1C(=O)Nc1ccc(OC2CC3CC(C3)C2)c(F)c1` (stereo not drawn) [Example 228, N-(4-(bicyclo[3.1.1]heptan-3-yloxy)-3-fluorophenyl)-5-ethyl-2-(3-ethyl-3-methoxyazetidin-1-yl)oxazole-4-carboxamide], the EC50 in the assay on TFEB and at TRPML1 (setting [1]) was 10 to 1000 nM in each case.
In the case of `CCc1oc(N2CCCC2)nc1C(=O)Nc1cc(F)c(OC2CC3CC(C3)C2)c(F)c1` (stereo not drawn) [Example 229, N-(4-(bicyclo[3.1.1]heptan-3-yloxy)-3,5-difluorophenyl)-5-ethyl-2-(pyrrolidin-1-yl)oxazole-4-carboxamide], the EC50 with TFEB and on TRPML1 (setting [1]) was 10 to 1000 nM each time.
For the compound `CCc1oc(N2CC(CC)(OC)C2)nc1C(=O)Nc1cc(F)c(OC2CC3CC(C3)C2)c(F)c1` (stereo not drawn) [Example 230, N-(4-(bicyclo[3.1.1]heptan-3-yloxy)-3,5-difluorophenyl)-5-ethyl-2-(3-ethyl-3-methoxyazetidin-1-yl)oxazole-4-carboxamide], the EC50 in the assay on TFEB and on TRPML1 (setting [1]) was 10 to 1000 nM each time.
For the compound `CCc1oc(N2CCC3(CC3)C2)nc1C(=O)Nc1cc(F)c(O[C@@H]2C[C@@H]3C[C@@H]3C2)c(F)c1` [Example 235, N-(4-(cis-bicyclo[3.1.0]hexan-3-yloxy)-3,5-difluorophenyl)-5-ethyl-2-(5-azaspiro[2.4]heptan-5-yl)oxazole-4-carboxamide], the EC50 in the assay with TFEB and on TRPML1 (setting [1]) was 10 to 1000 nM throughout.
Consider `CCc1oc(N2CC(CC)(OC)C2)nc1C(=O)Nc1cc(F)c(O[C@@H]2C[C@@H]3C[C@@H]3C2)c(F)c1` [Example 238, N-(4-(cis-bicyclo[3.1.0]hexan-3-yloxy)-3,5-difluorophenyl)-5-ethyl-2-(3-ethyl-3-methoxyazetidin-1-yl)oxazole-4-carboxamide], for which the EC50 with TFEB and at TRPML1 (setting [1]) was 10 to 1000 nM throughout.
On to `CCc1oc(N2CC(C)(OC)C2)nc1C(=O)Nc1cc(F)c(O[C@@H]2C[C@@H]3C[C@@H]3C2)c(F)c1` [Example 239, N-(4-(cis-bicyclo[3.1.0]hexan-3-yloxy)-3,5-difluorophenyl)-5-ethyl-2-(3-methoxy-3-methylazetidin-1-yl)oxazole-4-carboxamide], for which the EC50 in the assay with TFEB and at TRPML1 (setting [1]) was 10 to 1000 nM in each case.
Regarding `CCc1oc(N2CC3CCCC3C2)nc1C(=O)Nc1cc(F)c(OC2CC3C[C@H]3C2)c(F)c1` (stereo partly drawn) [Example 240, N-(4-(cis-bicyclo[3.1.0]hexan-3-yloxy)-3,5-difluorophenyl)-5-ethyl-2-(hexahydrocyclopenta[c]pyrrol-2(1H)-yl)oxazole-4-carboxamide], the EC50 in the assay on TFEB and on TRPML1 (setting [1]) was 10 to 1000 nM throughout.
Take `CCc1oc(N2CC3CCC3C2)nc1C(=O)Nc1cc(F)c(OC2CC3C[C@H]3C2)c(F)c1` (stereo partly drawn) [Example 241, N-(4-(cis-bicyclo[3.1.0]hexan-3-yloxy)-3,5-difluorophenyl)-2-(3-azabicyclo[3.2.0]heptan-3-yl)-5-ethyloxazole-4-carboxamide]: the EC50 with TFEB and on TRPML1 (setting [1]) was 10 to 1000 nM in each case.
Take `CCc1oc(N2CCCC2)nc1C(=O)Nc1cc(F)c(O[C@@H]2C[C@@H]3C[C@@H]3C2)c(F)c1` [Example 244, N-(4-(cis-bicyclo[3.1.0]hexan-3-yloxy)-3,5-difluorophenyl)-5-ethyl-2-(pyrrolidin-1-yl)oxazole-4-carboxamide]: the EC50 with TFEB and at TRPML1 (setting [1]) was 10 to 1000 nM each time.
